We go through 3 compounds from PMC4551467 (EBioMedicine, 2015).

“Also recorded” adds a separate entry of the source.

Data set [1] concerns MRC-5 human lung normal cells. The class given is cell-based. As to conditions: read-out: IC50 (agent concentration to kill 50% of untreated cells), MRC-5.
Data set [2] concerns NIH:OVCAR-3 cisplatin-resistant human ovarian cancer cells. The data set can be described thus: cells. Format: cell-based.
In data set [3] the test system is human normal cells (GM05757 and MRC-5). Format: cell-based. As to conditions: read-out: IC50 toward human normal cells.
Another data set deals with MRC-5 human normal cells. The class given is cell-based.
For data set [4] the following is noted: mouse, in vivo, cited from earlier work.
Data set [5] relates to HeLa, ME-180, MDA-MB-231, A549 and NIH:OVCAR-3 cancer cells. The data set can be described thus: cells. Format: cell-based. As to conditions: Homo sapiens, 72 h, read-out: IC50 against cancer cells.
Data set [6] deals with NIH:OVCAR-3 ovarian cancer xenograft. Further details: species or system SCID mice. As to conditions: mouse, in vivo.
For data set [7], the system named is A549 lung cancer xenograft tumor tissue. On the set-up: species or system SCID mice. Conditions: mouse, in vivo.
For data set [8] the following is noted: mouse, in vivo.
For data set [9] the following is noted: mouse, in vivo. The source holds these as a separate data set.
Data set [10] has as its system GM05757 human normal cells. Format: cell-based.

As to cisplatin, the IC50 in [1] was approximately 6 µM. Besides, in data set [2], the “NIH:OVCAR-3 cancer cells surviving high-dose treatment” value was “about 12%”. For the same compound, the IC50 in [3] is not above 10 µM. Further, the “activation of caspase-3 and -7 in MRC-5 normal cells” value in the data set on MRC-5 human normal cells was “significant activation”. The “mean body weight compared to vehicle control” value in data set [4] (2.3 mg/kg) is “significant decrease”. In [4] (15 mg/kg), the “levels of blood urea nitrogen (BUN)” value is given as “significantly elevated” and the “mice that died within 5 days” value was “Half”.

`Nc1cc(I)c(I)cc1N` [FMD-2I-DAB, 4,5-diiodo-1,2-phenylenediamine]: the IC50 in data set [5] fell in the range of 15 to 75 µM. Further, the “caspase activation (apoptosis) in normal cells” value in the data set with MRC-5 human normal cells is “negligible caspase activation”. Also, the “cisplatin-resistant ovarian (NIH:OVCAR-3) tumor growth vs control” value in data set [6] is listed as “effectively suppressed”. Moreover, the “apoptosis in tumor tissue (TUNEL) vs untreated group” value in data set [7] was “significant enhancement in apoptosis; also recorded: most effective inducer of apoptosis”. The “acute toxicity in mice (hepatotoxicity, nephrotoxicity, electrolytes)” value in [8] was “no acute toxicity”. For the same compound, the “overall physical toxicity in mice” value in data set [9] is listed as “no overall physical toxicity”.

In the case of `Nc1cc(Br)c(Br)cc1N` [FMD-2Br-DAB, 4,5-dibromo-1,2-phenylenediamine], the IC50 is 175 µM in data set [2] (Homo sapiens, OVCAR-3, 72 h, read-out: IC50, NIH:OVCAR-3) and 15 to 75 µM in data set [5]. The “caspase activation (apoptosis) in normal cells” value in the data set with MRC-5 human normal cells is on record as “negligible caspase activation”. Moreover, in data set [10], the “increase of the GSH level in normal cells” value is recorded as “about 40%”. Besides, in data set [7], the “apoptosis in tumor tissue (TUNEL) vs untreated group” value is listed as “significant enhancement in apoptosis”. Besides, in [8], the “acute toxicity in mice (hepatotoxicity, nephrotoxicity, electrolytes)” value was “no acute toxicity”. Moreover, in data set [9], the “overall physical toxicity in mice” value is recorded as “no overall physical toxicity”.
